Measured values: patent publication US10806747B2, “Methods for treating infection including sepsis via P2X receptor modulation” (Rutgers, The State University of New Jersey, priority 2017, dated 2020)

Tests used:
[1] = test system: peritoneal macrophages; assay: Intracellular killing of E. coli by peritoneal macrophages (gentamicin protection, CFU count); assay type: cell-based, murine; conditions: for effect on ATP-stimulated E. coli killing: antagonist pretreatment 30 min before 5 min ATP pulse
Protocol: FIGS. 1A through 1K show ATP augments bacterial killing in macrophages in a P2X4R-dependent fashion. […] Peritoneal macrophages from WT and P2X7R^−/− mice were infected with E. coli (FIG. 1A) or with S. aureus (FIG. 1B) for 90 minutes, which was followed by pulsing the cells with ATP for 5 minutes. Subsequently, after a 2-hour incubation with 400 ng/ml gentamicin, the macrophages were lysed and serial dilutions of their intracellular content were spread onto LB agar plates. *P<0.05; **P<0.01 vs. E. coli; n=5-6. FIG. 1C and FIG. 1D show ATP augments bacterial killing independently of adenosine. Macrophages from WT and CD39^−/− mice were infected with E. coli, pulsed with ATP (FIG. 1C) or adenosine (FIG. 1D), and then incubated with gentamicin for 2 hours, which was followed by intracellular CFU counting. *P<0.05; **P<0.01 vs. E. coli; n=4-6. […] Peritoneal macrophages were isolated from WT mice and RNA was extracted from untreated cells. RNA was transcribed and quantitative PCRs were conducted. n=6. FIGS. 1F through 1K show P2X4Rs are responsible for the ATP-stimulated increase in bacterial killing in macrophages. Peritoneal macrophages were infected with E. coli for 90 min, pretreated with (FIG. 1F) P2X4R antagonist (5-BDBD) or (FIG. 1G) P2X7R antagonist (A438079) for 30 minutes before an ATP pulse for 5 minutes, and then incubated with gentamicin for 2 hours. Killing was determined at the end of this incubation period. *P<0.05; ***P<0.001 vs. E. coli treatment; ^##P<0.01 vs. ATP/E. coli treatment; n=5-6. In FIG. 1H, macrophages were transfected with scrambled siRNA- or P2X4 siRNA, and the effect of ATP on bacterial killing determined. **P<0.01 vs. E. coli treatment; n=6. In FIG. 1I, peritoneal macrophages from WT and P2X4R^−/− mice were infected with E. coli, pulsed with ATP, incubated with gentamicin for 2 hours and then bacterial killing was determined. **P<0.01 vs. E. coli treatment; n=6. In FIGS. 1J and 1K, phorbol 12-myristate 13-acetate (PMA)-differentiated human monocytic THP-1 cells were infected with E. coli for 90 minutes, exposed to ATP for 5 minutes and then killing was determined as described above for peritoneal macrophages (FIG. 1J). In other experiments, THP-1 cells were infected with E. coli, pretreated with 5-BDBD or vehicle for 30 minutes before a 5-minutes ATP pulse (FIG. 1K), two hours after which intracellular CFUs were determined. **P<0.01; vs. E. coli treatment; ^##P<0.01 vs. ATP/E. coli treatment. n=6-7. Data are expressed as mean±SEM. All results are representatives of three experiments.
Naive, thioglycollate-elicited murine peritoneal macrophages were treated with E. coli (K-12 strain) at 1:15 cell:bacteria ratio in vitro and incubated for 90 minutes to allow for phagocytosis to occur. After 90 minutes, the cells were washed to remove non-phagocytosed bacteria and treated with increasing concentrations (0.1 to 3 μM) of ATP or adenosine for 5 minutes. After 5 minutes, the medium was removed and the cells were washed extensively.
New medium was added that was supplemented with 100 μg/mL gentamicin. This allowed the maturation of the phagosome and killing of the phagocytosed bacteria. The cells were incubated for approximately 2 hours at 37° C. After incubation, the cells were washed 5 times to remove the gentamicin and were lysed. Colony forming units (CPUs) were determined after an overnight incubation on agar.

[2] = test system: human monocytic THP-1 cells; assay: Intracellular killing of E. coli by PMA-differentiated THP-1 cells; assay type: cell-based
Protocol: (§1) FIGS. 1A through 1K show ATP augments bacterial killing in macrophages in a P2X4R-dependent fashion. […] Peritoneal macrophages from WT and P2X7R^-/- mice were infected with E. coli (FIG. 1A) or with S. aureus (FIG. 1B) for 90 minutes, which was followed by pulsing the cells with ATP for 5 minutes. Subsequently, after a 2-hour incubation with 400 ng/ml gentamicin, the macrophages were lysed and serial dilutions of their intracellular content were spread onto LB agar plates. *P<0.05; **P<0.01 vs. E. coli; n=5-6. FIG. 1C and FIG. 1D show ATP augments bacterial killing independently of adenosine. […] RNA was transcribed and quantitative PCRs were conducted. n=6. […] Killing was determined at the end of this incubation period. *P<0.05; ***P<0.001 vs. E. coli treatment; ^##P<0.01 vs. ATP/E. coli treatment; n=5-6. In FIG. 1H, macrophages were transfected with scrambled siRNA- or P2X4 siRNA, and the effect of ATP on bacterial killing determined. **P<0.01 vs. E. coli treatment; n=6. In FIG. 1I, peritoneal macrophages from WT and P2X4R^-/- mice were infected with E. coli, pulsed with ATP, incubated with gentamicin for 2 hours and then bacterial killing was determined. **P<0.01 vs. E. coli treatment; n=6. […] Data are expressed as mean±SEM. […]

[3] = test system: peritoneal macrophages; assay: Intracellular killing of S. aureus by peritoneal macrophages (CFU count); assay type: cell-based, mice; conditions: WT and P2X7R−/− macrophages; S. aureus 90 min, ATP pulse 5 min
Protocol: as §1

[4] = test system: murine polymicrobial sepsis; conditions: injected ATP; cited from earlier work
[5] = test system: sepsis by cecal ligation and puncture (CLP); assay: CLP sepsis model: survival, bacterial load, plasma BUN; assay type: in vivo, mice; conditions: for survival: monitored 7 days, vs vehicle
Protocol: WT and P2X4R^−/− mice were injected with 10 mg/kg ivermectin or its vehicle and subjected to CLP. The survival of mice was monitored for 7 days *P<0.05-P2X4R^−/− injected with vehicle (n=21) vs. WT injected with vehicle (n=25); ***P<0.001—WT injected with ivermectin (n=20); vs. WT injected with vehicle (n=25). In FIGS. 3B and 3C bacterial burden was determined by counting the number of CFUs on blood agar plates after serial dilution of blood and peritoneal lavage samples. Blood and lavage fluid were collected at 16 hours after CLP. *P<0.05 vs. veh (veh and 10 mg/kg ivermectin; n=10 and 9, respectively. In FIG. 3D BUN was determined from plasma of ivermectin- or vehicle-treated mice 16 hours after CLP. *P<0.05. Veh and 10 mg/kg ivermectin; n=10 and 9, respectively. FIGS. 3E and 3F show ivermectin increasing intracellular killing of E. coli in cultured macrophages. Peritoneal macrophages were infected with E. coli for 90 minutes and then pulsed with ATP for 5 minutes. ATP was then removed and the macrophages were incubated with ivermectin for 30 minutes. Thereafter the ivermectin was removed and the cells were incubated in medium containing gentamicin for another 2 hours. The cells were then lysed and serial dilutions of intracellular content were spread onto LB agar plates. *P<0.05 (n=5-6); **P<0.01 (n=5-6). Data are expressed as mean±SEM. All results are representatives of three experiments.
From these studies, it was believed that pharmacological activation of P2X4Rs would have an effect opposite to that of inactivating these receptors genetically; that is that the pharmacological activation of P2X4Rs would be protective. To examine this, mice were injected with ivermectin, an anti-helminth drug that is a partial allosteric activator of P2X4Rs (Khakh et al. J Neurosci 1999 19:7289-7299) 90 minutes after performing CLP. […] Furthermore, ivermectin potentiated the ATP stimulation of bacterial killing in macrophages in vitro (FIGS. 3E and 3F).
Male C57B16/J rmce were anesthetized using Nembutal, and a 2-cm midline laparotomy was performed to allow exposure of the cecum with adjoining intestine. Approximately two-thirds of the cecum was tightly ligated with a 3.0 silk suture, and the ligated part of the cecum was perforated twice (through and through) with a 20-gauge needle. […] The mice were resuscitated with 1 ml of physiological saline injected subcutaneously and returned to their cages with free access to food and water, and survival was monitored for 7 days (p<0.05). Survival curves were analyzed using two-tailed Fisher's exact test.
Bacterial load in mice subjected to CLP was measured at 16 h after surgery. Dilutions of blood or peritoneal lavage fluid were cultured on tryptose blood agar plates, and the number of bacterial colonies was counted. […]

In the case of Nc1ncnc2c1ncn2[C@@H]1O[C@H](CO)[C@@H](O)[C@H]1O [adenosine], the “killing of E. coli” value ([1]; macrophages from WT and CD39−/− mice, adenosine pulse) is reported as “failed to increase E. coli killing”.
With O=C1CN=C(c2cccc(Br)c2)c2oc3ccccc3c2N1 [P2X4R antagonist] the “effect on ATP-stimulated E. coli killing” value [1] was “prevented the stimulatory effect of ATP on E. coli killing” and the “effect on ATP-stimulated E. coli killing” value ([2]; antagonist 30 min before 5 min ATP pulse) was “inhibited the stimulatory effect of ATP on E. coli killing”.
In the case of Nc1ncnc2c1ncn2[C@@H]1O[C@H](COP(=O)(O)OP(=O)(O)OP(=O)(O)O)[C@@H](O)[C@H]1O [ATP, adenosine triphosphate], the “intracellular bacterial killing (S. aureus)” value [3] is listed as “increases intracellular bacterial killing”, the macrophage-mediated bacterial killing [4] is listed as “augments macrophage-mediated bacterial killing” and the “killing of E. coli” value ([1]; WT and P2X7R−/− macrophages, E. coli 90 min, ATP pulse 5 min, gentamicin 2 h) is listed as “increased killing of E. coli”. For the same compound, the “killing of E. coli” value ([1]; macrophages from P2X4R−/− mice, ATP pulse) was “failed to stimulate E. coli killing”, the “killing of E. coli” value ([1]; macrophages from WT littermate controls, ATP pulse) was “dose-dependent increase in killing” and the “killing of E. coli” value ([1]; macrophages lacking CD39 (CD39−/−), ATP pulse) was “also killed E. coli”. The “stimulatory effect of ATP on E. coli killing” value ([1]; macrophages with P2X4R silencing vs scrambled control) was “largely reversed” and the “killing of E. coli” value ([2]; ATP 5 min) was “increased killing of E. coli”.
With 22,23-dihydroavermectin [ivermectin] the “ATP stimulation of bacterial killing in macrophages” value ([1]; E. coli 90 min, ATP pulse 5 min, then ivermectin 30 min, gentamicin 2 h) was “potentiated”, the “plasma BUN levels” value ([5]; 16 hours after CLP, 10 mg/kg ivermectin vs vehicle) was “diminished plasma BUN levels” and the survival ([5]; P2X4R−/− mice, 10 mg/kg ivermectin, CLP) was “failed to improve survival”. The survival ([5]; WT mice, 10 mg/kg ivermectin 90 minutes after CLP) was “improved survival” and the “bacterial burden (CFUs)” value ([5]; blood and peritoneal lavage, 16 hours after CLP, 10 mg/kg ivermectin vs vehicle) was “decreased bacteria”.
With Clc1cccc(-c2nnnn2Cc2cccnc2)c1Cl [P2X7R antagonist] the “effect on ATP-stimulated E. coli killing” value [1] was “not P2X7R antagonist (FIG. 1G) prevented the stimulatory effect of ATP”.
